Experimental data: patent US9504668B2 (priority 2013, dated 2016)

Assays:
Assay in all cases: animal or person
Format in all cases: in vivo
Male Sprague-Dawley rats [1] = settings: for ED50: Rattus norvegicus, read-out: Prevention ED50; for ED50 / Prevention Peak Time: ip; for Prevention Peak Time / Prevention Protection %: rat, in vivo
Mice = settings: Mus musculus, po; for ED50: read-out: MES test ED50
Male Sprague-Dawley rats [2] = settings: Rattus norvegicus, iv, read-out: Intervention Protection %
[3] = read-out: MES test Protection %

Structure (SMILES) | responders at 46 mg/kg (Male Sprague-Dawley rats [2]) | responders at 90 mg/kg (Mice; [3]) | other results
COCO[C@@H](c1ccccc1Cl)[C@H](C)OC(N)=O [Example 1, 1-(2-chlorophenyl)-(S)-1-methoxymethoxypropyl-(S)-2-carbamate] | 50% |  | ED50 (Male Sprague-Dawley rats [1]): 26.6 mg/kg; Prevention Peak Time (Male Sprague-Dawley rats [1]): 0.5 h; ED50 (Mice): 21.6 mg/kg
CC[C@H](OC(N)=O)[C@@H](OCOC)c1ccccc1Cl [Example 9, 1-(2-chlorophenyl)-(S)-1-methoxymethoxybutyl-(S)-2-carbamate] | 33.3% | 100% | 
COCO[C@@H](c1ccccc1Cl)[C@@H](OC(N)=O)C(C)C [Example 10, 1-(2-chlorophenyl)-(S)-1-methoxymethoxy-3-methyl-butyl-(S)-2-carbamate] | 66.7% | 100% | 
CCCC[C@H](OC(N)=O)[C@@H](OCOC)c1ccccc1Cl [Example 11, 1-(2-chlorophenyl)-(S)-1-methoxymethoxyhexyl-(S)-2-carbamate] | 66.7% | 100% | 
COCO[C@@H](c1ccccc1I)[C@H](C)OC(N)=O [Example 20, 1-(2-iodophenyl)-(S)-1-methoxymethoxypropyl-(S)-2-carbamate] | 16.7% |  | ED50 (Male Sprague-Dawley rats [1]): 25.9 mg/kg; Prevention Peak Time (Male Sprague-Dawley rats [1]): 1 h; ED50 (Mice): 29.5 mg/kg
CC[C@H](OC(N)=O)[C@@H](OCOC)c1ccccc1I [Example 28, 1-(2-iodophenyl)-(S)-1-methoxymethoxybutyl-(S)-2-carbamate] | 33.3% | 33.3% | Prevention Protection % (Male Sprague-Dawley rats [1]): ^a50 (100%)
COCO[C@@H](c1ccccc1I)[C@@H](OC(N)=O)C(C)C [Example 36, 1-(2-iodophenyl)-(S)-1-methoxymethoxy-3-methyl-butyl-(S)-2-carbamate] |  | 100% | 
CCCC[C@H](OC(N)=O)[C@@H](OCOC)c1ccccc1I [Example 44, 1-(2-iodophenyl)-(S)-1-methoxymethoxyhexyl-(S)-2-carbamate] |  | 100% | 
COCO[C@@H](c1cccc(I)c1)[C@H](C)OC(N)=O [Example 52, 1-(3-iodophenyl)-(S)-1-methoxymethoxypropyl-(S)-2-carbamate] | 100% |  | Prevention Protection % (Male Sprague-Dawley rats [1]): ^a20 (16.7%); ED50 (Mice): 24.7 mg/kg
COCO[C@@H](c1cccc(Cl)c1Cl)[C@H](C)OC(N)=O [Example 68, 1-(2,3-dichlorophenyl)-(S)-1-methoxymethoxypropyl-(S)-2-carbamate] | 40% | 100% | 
COCO[C@H](c1ccccc1Cl)[C@@H](C)OC(N)=O [Example 69, 1-(2-chlorophenyl)-(R)-1-methoxymethoxypropyl-(R)-2-carbamate] |  | 66.6% | 
COCO[C@H](c1ccccc1Cl)[C@H](C)OC(N)=O [Example 71, 1-(2-chlorophenyl)-(R)-1-methoxymethoxypropyl-(S)-2-carbamate] | 100% | 100% | 
COCO[C@@H](c1ccccc1Cl)[C@@H](C)OC(N)=O [Example 72, 1-(2-chlorophenyl)-(S)-1-methoxymethoxypropyl-(R)-2-carbamate] | 50% | 100% | 
COCO[C@H](c1c(Cl)cccc1Cl)[C@@H](C)OC(N)=O [Example 107, 1-(2,6-dichlorophenyl)-(R)-1-methoxymethoxypropyl-(R)-2-carbamate] |  |  | responders at 30 mg/kg (Mice; [3]): 33.3%
CO[C@@H](c1ccccc1Cl)[C@H](C)OC(N)=O [Example 124, 1-(2-chlorophenyl)-(S)-1-methoxypropyl-(S)-2-carbamate] |  |  | ED50 (Mice): 15.6 mg/kg
CO[C@@H](c1ccccc1F)[C@H](C)OC(N)=O [Example 135, 1-(2-fluorophenyl)-(S)-1-methoxypropyl-(S)-2-carbamate] | 100% |  | Prevention Protection % (Male Sprague-Dawley rats [1]): ^a20 (16.7%); ED50 (Mice): 12.5 mg/kg
CO[C@@H](c1ccccc1I)[C@H](C)OC(N)=O [Example 143, 1-(2-iodophenyl)-(S)-1-methoxypropyl-(S)-2-carbamate] |  |  | ED50 (Male Sprague-Dawley rats [1]): 19.6 mg/kg; Prevention Peak Time (Male Sprague-Dawley rats [1]): 1 h; ED50 (Mice): 15.7 mg/kg; responders at 23 mg/kg (Male Sprague-Dawley rats [2]): 66.7%
CC[C@H](OC(N)=O)[C@@H](OC)c1ccccc1I [Example 151, 1-(2-iodophenyl)-(S)-1-methoxybutyl-(S)-2-carbamate] | 100% |  | Prevention Protection % (Male Sprague-Dawley rats [1]): ^a60 (100%); ED50 (Mice): 37 mg/kg
CCCC[C@H](OC(N)=O)[C@@H](OC)c1ccccc1I [Example 167, 1-(2-iodophenyl)-(S)-1-methoxyhexyl-(S)-2-carbamate] |  | 33.3% | 
CO[C@@H](c1cccc(I)c1)[C@@H](OC(N)=O)C(C)C [Example 177, 1-(3-iodophenyl)-(S)-1-methoxy-3-methyl-butyl-(S)-2-carbamate] |  | 66.6% | 
CO[C@@H](c1ccc(F)cc1)[C@H](C)OC(N)=O [Example 179, 1-(4-fluorophenyl)-(S)-1-methoxypropyl-(S)-2-carbamate] |  | 33.3% | 
CO[C@@H](c1ccc(Cl)cc1Cl)[C@H](C)OC(N)=O [Example 183, 1-(2,4-dichlorophenyl)-(S)-1-methoxypropyl-(S)-2-carbamate] | 100% | 100% | 

Structure (SMILES) | responders at 46 mg/kg (Male Sprague-Dawley rats [2]) | responders at 90 mg/kg (Mice; [3]) | other results
CO[C@@H](c1cccc(Cl)c1Cl)[C@H](C)OC(N)=O [Example 191, 1-(2,3-dichlorophenyl)-(S)-1-methoxypropyl-(S)-2-carbamate] | 100% | 100% | 
CO[C@H](c1ccccc1Cl)[C@H](C)OC(N)=O [Example 194, 1-(2-chlorophenyl)-(R)-1-methoxypropyl-(S)-2-carbamate] | 83.3% | 100% | 
CO[C@@H](c1ccccc1Cl)[C@@H](C)OC(N)=O [Example 195, 1-(2-chlorophenyl)-(S)-1-methoxypropyl-(R)-2-carbamate] | 50% | 100% | 
CCCC[C@@H](OC(N)=O)[C@H](OC)c1ccc(F)cc1 [Example 213, 1-(4-fluorophenyl)-(R)-1-methoxyhexyl-(R)-2-carbamate] |  | 33.3% | 
CC[C@@H](OC(N)=O)[C@H](OC)c1ccc(Cl)cc1Cl [Example 232, 1-(2,4-dichlorophenyl)-(R)-1-methoxybutyl-(R)-2-carbamate] |  | 33.3% | 
C[C@@H](OC(N)=O)[C@H](OC(N)=O)c1ccccc1Cl [Example 250, 1-(2-chlorophenyl)-(R)-2-carbamoyloxypropyl-(R)-1-carbamate] |  |  | Prevention Protection % (Male Sprague-Dawley rats [1]): ^a60 (16.7%); ED50 (Mice): 46.3 mg/kg
CC(OC(N)=O)C(OC(N)=O)c1ccccc1Cl (centres unmarked) [Example 251, 1-(2-chlorophenyl)-2-carbamoyloxypropyl-1-carbamate] |  |  | responders at 100 mg/kg (Mice; [3]): 33.3%
C[C@H](OC(N)=O)[C@@H](OC(N)=O)c1ccccc1I [Example 259, 1-(2-iodophenyl)-(S)-1-carbamoyloxypropyl-(S)-2-carbamate] |  | 66.6% | 
C[C@H](OC(N)=O)[C@@H](OC(N)=O)c1c(Cl)cccc1Cl [Example 267, 1-(2,6-dichlorophenyl)-(S)-1-carbamoyloxypropyl-(S)-2-carbamate] |  |  | responders at 50 mg/kg (Mice; [3]): 16.6%
COCO[C@H](c1cc(Cl)ccc1Cl)[C@@H](C)OC(N)=O [Example 273, 1-(2,5-dichlorophenyl)-(R)-1-methoxymethoxypropyl-(R)-2-carbamate] |  |  | responders at 30 mg/kg (Mice; [3]): 33.3%
COCO[C@@H](C)[C@@H](OC(N)=O)c1ccccc1Cl [Example 274, 1-(2-chlorophenyl)-(S)-2-methoxymethoxypropyl-(S)-1-carbamate] | 33.3% | 100% | 
CO[C@@H](C)[C@@H](OC(N)=O)c1ccccc1Cl [Example 275, 1-(2-chlorophenyl)-(S)-2-methoxypropyl-(S)-1-carbamate] |  | 100% | 
COCO[C@H](COC(N)=O)c1ccccc1I [Example 278, 1-(2-iodophenyl)-(S)-1-methoxymethoxyethyl-2-carbamate] |  |  | responders at 30 mg/kg (Mice; [3]): 33.3%
COCO[C@@H](C)[C@@H](OC(N)=O)c1ccccc1I [Example 282, 1-(2-iodophenyl)-(S)-2-methoxymethoxypropyl-1-carbamate] |  | 33.3% | 
CO[C@@H](C)[C@@H](OC(N)=O)c1ccccc1I [Example 283, 1-(2-iodophenyl)-(S)-2-methoxypropyl-1-carbamate] |  | 100% | 
COCO[C@@H](C)[C@@H](OC(N)=O)c1ccccc1F [Example 284, 1-(2-fluorophenyl)-(S)-2-methoxymethoxypropyl-1-carbamate] |  | 33.3% | 
C[C@H](OC(N)=O)[C@@H](OC(N)=O)c1c(F)cccc1Cl [Example 286, 1-(2-chloro-6-fluorophenyl)-(S)-1-carbamoyloxypropyl-(S)-2-carbamate] |  | 33.3% | 
C[C@@H](OC(N)=O)[C@H](OC(N)=O)c1ccccc1F [Example 289, 1-(2-fluorophenyl)-(R)-1-carbamoyloxypropyl-(R)-2-carbamate] |  |  | Prevention Protection % (Male Sprague-Dawley rats [1]): ^a80 (16.7%); ED50 (Mice): 56.2 mg/kg
C[C@@H](OC(N)=O)[C@H](OC(N)=O)c1c(Cl)cccc1Cl [Example 290, 1-(2,6-dichlorophenyl)-(R)-1-carbamoyloxypropyl-(R)-2-carbamate] |  |  | responders at 30 mg/kg (Mice; [3]): 33.3%
C[C@@H](OC(N)=O)[C@H](OC(N)=O)c1c(F)cccc1F [Example 292, 1-(2,6-difluorophenyl)-(R)-1-carbamoyloxypropyl-(R)-2-carbamate] |  |  | responders at 56 mg/kg (Mice; [3]): 33.3%
C[C@@H](OC(N)=O)[C@@H](OC(N)=O)c1ccccc1Cl [Example 294, 1-(2-chlorophenyl)-(S)-1-carbamoyloxypropyl-(R)-2-carbamate] |  | 66.6% | 
C[C@H](OC(N)=O)[C@H](OC(N)=O)c1ccccc1Cl [Example 295, 1-(2-chlorophenyl)-(R)-1-carbamoyloxypropyl-(S)-2-carbamate] |  | 100% | 
